Measured values: patent US5358936A, “Anionic furanose derivatives, methods of making and using the same” (Gordon; Paul, priority 1991, dated 1994)
Where “and” joins values, the source holds several entries; their conditions need not be identical. Equal values may be shown once. Where a name gives a salt, the structure may show the parent alone.

Tests used:
[1] = tested on: bacterial lipopolysaccharide toxicity; experiment: Early shock symptoms (diarrhea, malaise) after bacterial endotoxin in older rabbits (Example 28 B); type: in vivo, rabbit; conditions: 10 mg/kg IV; by 48 hours; all eight controls affected; P<0.01
Procedure: B. Employing the same batch of endotoxin, the same induction methodology was applied to an older, seven month old group of rabbits. […] In this study the treatment group received 10 mg/kg of Compound III, given IV, as above.

peritoneal neutrophils = experiment: In vitro neutrophil chemotaxis toward zymosan-activated rat serum (Example 24); type: cell-based, mouse; conditions: for Percent Inhibition of chemotaxis: tripotassium salt
Procedure: In vitro neutrophil chemotaxis studies were carried out by standard methods, as follows:
Mice were injected with complete Freund's adjuvant (CFA) and peritoneal cells, principally neutrophjls (>90 percent), were reproved from the mice 24 hours thereafter. Blind-well chemotactic chambers (Nucleopore Corp., Pleasanton, Calif.) were utilized.
Medium (RPMI 1640 plus 10 percent fetal calf serum) or medium plus 20 percent zymosan-activated rat serum (ZAS) was added to the lower compartment of each chamber. A nucleopore filter (8 μm pore size) was placed between compartments and 1×10^5 peritoneal neutrophils (above) suspended in medium were placed in the upper compartment. Chambers were incubated for six hours, after which time the filters were removed and stained with Giemsa stain. The number of cells on the lower surface of the filter was counted under a microscope. Treatment groups were assayed in duplicate.
The studies were carried out more specifically as follows:
Zymosan (Sigma Chemical Co., St. Louis, Mo.) was mixed with rat serum for one hour at 37° C. at 1 milligram (mg)/ml. The resulting chemoattractant composition was filtered, aliquotted and stored frozen at -70° C. prior to use.
The above chemoattractant composition was used as a 20 percent v/v solution in medium.
The chemotaxis chambers were arranged as follows:
The chambers were incubated at 37° C. for six hours, after which the chambers were dismantled, and the filters removed and treated as follows:
a) The filters were immersed in Giemsa stain diluted 1:50 for 30-45 minutes.
b) The stained filters were rinsed gently in distilled water for 3-5 minutes.
c) The stained, rinsed filters were air dried without blotting.
Several compounds described herein and control compounds ("drug", above) were examined at various concentrations, in duplicate. The molar concentration of a drug that inhibited the observed chemotaxis by 50 percent, defined as the ID50 value, was determined as shown below.

[2] = tested on: gastric submucosal thrombi; experiment: Inhibition of gastric submucosal thrombi (Example 30); type: in vivo, rat; conditions: 10 mg/kg IV
Procedure: Thrombosis was induced in rat stomach submucosal blood vessels by the following two-step treatment. First, 1.5 ml of 100 percent ethanol was administered by oral gavage. This produces non-specific injury to tissues and blood vessels of the gastric mucosa. Second, 1.0 mg of adenosine diphosphate (ADP) in 1.0 ml of H2 O, was administered by oral garage 15 minutes after the administration of ethanol. Administration of ADP biases the organ response towards thrombosis by inducing platelet aggregation.
The pathology generated is typically a disseminated pattern of multiple small thrombi, observed on examination of the gastric mucosa, 1-3 hours after ethanol administration. These thrombi are dark red, dilated, thrombosed submucosal blood vessel segments, each being approximately 1 mm thick and 2 to 6 mm long.
In these studies, animals were treated with drug or centrol at one hour prior to ethanol administration. Thrombosis was induced as discussed before, and animals were sacrificed at 1.5 hours after ethanol administration. Focal thrombi were then counted. In this study, n=9-10.

lung gross pathology = experiment: Generalized Schwartzmann Reaction (Example 28 A); type: in vivo, rabbit; conditions: P < 0.01
Procedure: The Generalized Schwartzmann Reaction (GSR) is a pathology in which two intravenous injections of non-lethal amounts of bacterial endotoxin, when separated by 8 to 36 hours, promote thrombotic and tissue-destructive processes in the lung, producing disseminated pulmonary thrombosis and necrosis in otherwise untreated rabbits.
A. In this study, eight six-week old salmonella-free male rabbits each weighing about 1.5 kg were injected IV with saline vehicle and eight similar rabbits were injected IV with 50 mg/kg of Compound III in the same vehicle. One hour later, all of the animals were injected IV with 100 μg of E. coli lipopolysaccharide (LPS; Sigma Chemical Co.) on day one and with the same amount of LPS on day two, twenty hours later. Animals were evaluated for clinical signs at 24 and 48 hours, and were sacrificed for organ evaluation 48 hours after the second endotoxin injection.
In assessing gross pathology, separate scores were developed in four categories and these were then summed and added, in one instance, to a score for clinical signs.
Gross Pathology Categories
(1) Surface redness, diffuse or mottled (reflecting hyperemia, hemostasis).+2 to +4.
(2) Discrete focal surface lesions (reflecting thrombosis without disruption of gross pulmonary architecture).

[3] = tested on: myeloperoxidase (MPO); neutrophil infiltration; experiment: Myeloperoxidase (MPO) accumulation in ZAS-swollen footpads (Example 23); type: in vivo, rat; conditions: ZAS alone 94.42 ± 12.81, normal 11.67 ± 1.87, P < 0.01
Procedure: The relationship of neutrophil infiltration to ZAS-induced swelling, and its drug-inhibition, was evaluated in another study. In this study, all procedures employing ZAS and Compound III were carried out as above, except that, Compound III was administered 45 minutes before ZAS, and standardized samples of the swollen footpads were removed and subjected to analysis for myeloperoxidase activity (MPO), according to the method of Lundberg et al., Inflammation, 7:247, (1983). MPO is a neutrophil-specificenzyme, and its assay is the most widely used method of identifying the degree of neutrophil participation in organ pathology.

For CC1(C)O[C@H]2O[C@H]([C@@H](COS(=O)(=O)O)OS(=O)(=O)O)[C@H](OS(=O)(=O)O)[C@H]2O1 [Compound III, 1,2-O-(2-Propylidene)-3,5,6-tri-O-sulfo-α-D-glucofuranose, tripotassium salt], the “rabbits exhibiting symptoms of early shock (diarrhea, malaise)” value [1] was “only one of eight”, the “times as potent as ibuprofen and prednisone in chemotaxis inhibition” value (peritoneal neutrophils) was 100-1000 times and the IC50 (peritoneal neutrophils; Mus musculus, Neutrophil, 6 h, 20 percent zymosan-activated rat serum, six hours, 37° C., read-out: ID50 (molar concentration that inhibited chemotaxis by 50 percent)) was 200 nM. For the same compound, the inhibition at 0.01 µg/mL (peritoneal neutrophils; Mus musculus, Neutrophil, dose 0.01 μg/ml, read-out: Percent Inhibition of chemotaxis) was 1.5%, the inhibition at 100 µg/mL (peritoneal neutrophils; Mus musculus, Neutrophil, dose 100.0 μg/ml, read-out: Percent Inhibition of chemotaxis) was 68% and the inhibition at 200 µg/mL (peritoneal neutrophils; Mus musculus, Neutrophil, dose 200.0 μg/ml, read-out: Percent Inhibition of chemotaxis) was 60%. The “Percent Inhibition of chemotaxis” value (peritoneal neutrophils; dose 1.0 μg/ml) was 69.0% and 65.0% and 90.0% and 88.5% and 77.0% and 63.5% and 70.0%, the “Percent Inhibition of chemotaxis” value (peritoneal neutrophils; dose 10.0 μg/ml) was 87.0% and 76.0% and 92.5% and 97.5% and 74.5% and the “Percent Inhibition of chemotaxis” value (peritoneal neutrophils; dose 100.0 μg/ml) was 80.5%. The “relative activity in inhibiting neutrophil chemotaxis, in words” value (peritoneal neutrophils; in vitro) was “more active than any of the other assayed compounds”, the “Drug Effect on thrombi” value [2] was -62.3% and the “Mean Thrombi per Stomach, ±SE” value ([2]; ethanol + ADP, control 10.60 ± 1.42) was 4.00 ± 1.12 per Stomach. The “Mean Pathology score” value (lung gross pathology; 50 mg/kg IV one hour before LPS, untreated 8.00 ± 1.02) was 2.25 ± 1.10, the “Drug Effect on mean pathology score” value (lung gross pathology; 50 mg/kg IV) was -72% and the MPO ([3]; 17 mg/kg, n = 6) was 32.17 ± 2.83 Rel. Units. It also gave an MPO ([3]; 50 mg/kg, n = 12) of 41.67 ± 8.93 Rel. Units.
